# Data as given in PMC10610505, “Synthesis and Biological Evaluation of Some New 3-Aryl-2-thioxo-2,3-dihydroquinazolin-4(1H)-ones and 3-Aryl-2-(benzylthio)quinazolin-4(3H)-ones as Antioxidants; COX-2, LDHA, α-Glucosidase and α-Amylase Inhibitors; and Anti-Colon Carcinoma and Apoptosis-Inducing Agents” (Pharmaceuticals, 2023).
# Values joined by “and” are separate entries in the source; they are usually repeats but may differ in a detail not shown here. Equal values may be shown once.
# Experiments:
# [1] = biological target: purified recombinant human LDHA protein (Homo sapiens, UniProt P00338); assay: Lactate dehydrogenase A (LDHA) inhibitory assay; assay type: biochemical; conditions: for Fold change of LDHA inhibition as compared to 0.1 mg/mL: % inhibition at 0.200 mg/mL divided by % inhibition at 0.100 mg/mL; for inhibition at 100 µg/mL: at 0.1 mg/mL; for inhibition at 100 µg/mL / inhibition at 200 µg/mL: read-out: LDHA mean % inhibition ± SD; for inhibition at 200 µg/mL: at 0.2 mg/mL
# Experimental: The LDHA inhibitory effectiveness was investigated by measuring the amounts of consumed NADH [73]. […] The fluorescence of NADH, which has an excitation wavelength of 340 nm and an emission wavelength of 460 nm, was detected using a spectrofluorometer. […] The LDHA inhibitory efficiency was expressed as an inhibition percentage, which was determined via a comparison with the negative control experiments.
# HCT-116 carcinoma cells = assay: Annexin-V-FITC/PI flow cytometry, HCT-116; assay type: cell-based, human; conditions: 50 µg/mL, 48 h; for Early apoptotic cells (Annexin-V positive, PI negative): lower right quadrant; for Late apoptotic cells (Annexin-V and PI positive): upper right quadrant
# Experimental: In order to examine the effect of compounds 3a and 3f on the apoptosis of HCT-116 and LoVo carcinoma cells, the Annexin-V-FITC probe was used and flow cytometry analyses were performed (Figure 7).
# The percentages of the early apoptotic cells (Annexin-V positive and propidium iodide, PI negative) and late apoptotic cells (both Annexin-V and PI positive) were then calculated. Annexin V-PI staining was also performed to distinguish apoptotic and necrotic cell deaths.
# The distribution of early and late apoptotic cells after treatment with compounds 3a and 3f was carried out using an Annexin V-FITC Apoptosis Detection Kit (BioVisionResearch Products—USA). HCT-116 and LoVo carcinoma cells were seeded in 60 mm^2 culture dishes and treated with the vehicles DMSO, and compounds 3a and 3f (50 µg/mL) for 48 h. Cells were then harvested, washed twice with PBS and resuspended in an Annexin-V binding buffer (BioVisionResearch Products—USA). Finally, the cells were stained with Annexin V-FITC and propidium iodide (PI). The fluorescent intensity of the stained cancer cells was determined using an FITC signal detector (usually FL1) and PI staining with the phycoerythrin emission signal detector (through quadrant statistics for necrotic and apoptotic cell populations).
# LoVo carcinoma cells = assay: Cell cycle assay (PI flow cytometry), LoVo; assay type: cell-based, human; conditions: 50 µg/mL, 48 h
# Experimental: In the current study, the cell cycle distribution of the treated HCT-116 and LoVo carcinoma cells with compounds 3a and 3f was assessed by labeling the cell’s DNA with PI stain in order to determine if the induction of apoptosis in carcinoma cells could be related to the cell cycle arrest (Figure 8A–F). The intensity of the PI stain is proportional to the cell’s DNA content (Figure 9). […] The ability of the tested compounds (3a and 3f) to block the cell cycle progression in LoVo and HCT-116 cells confirmed their anticancer potential against these colon carcinoma cell lines and could explain the mechanism of the observed cytotoxicity.
# Changes in cell cycle distribution induced by compounds 3a and 3f were analyzed using a flow cytometric analysis according to Nicoletti et al. 1991 [108] using a Propidium Iodide Flow Cytometry Kit for Cell Cycle Analysis (Abcam-UK). HCT-116 and LoVo carcinoma cells (5 × 10^4 cells/mL) were treated with DMSO as a negative control, and compounds 3a and 3f (50 µg/mL), for 48 h. After the centrifugation of the treated cells at 1800 rpm for 5 min, the pellet was washed twice with PBS. Then, the cells were fixed by mixing […] of 90% cold ethanol, and stained with propidium iodide (PI) for 1 h at 37 °C. […] The stained cells were analyzed for their DNA content using a BD FACSC flow cytometer.
# [2] = tested on: LoVo human colon carcinoma cells; assay: Viability assay (LDH release), LoVo; assay type: cell-based; conditions: for viability at 200 µg/mL: 48 h, read-out: Mean % of viable cells ± SD, LoVo; for IC50: from concentration–response curves
# Summary of the method: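 LoVo human colon carcinoma cells were grown for 24 h at 37 °C in a humidified 5% CO2 incubator in Dulbecco's Modified Eagle's Medium containing 10% FBS, then exposed to test samples for 48 h. Lactate dehydrogenase released into the supernatant was measured by ELISA end-point assay at 550 nm, using 0.1% Triton X-100 as positive control and medium alone as negative control. Viability was reported as mean % ± SD (n = 3) and compared against HUVEC cells.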
Compound,Fold change of LDHA inhibition as compared to 0.1 mg/mL [1] [fold],inhibition at 100 µg/mL [1] [%],inhibition at 200 µg/mL [1] [%],"Early apoptotic cells (Annexin-V positive, PI negative) (HCT-116 carcinoma cells) [%]",Late apoptotic cells (Annexin-V and PI positive) (HCT-116 carcinoma cells) [%],Cells in G2/M phase (%DIP G2/M) (LoVo carcinoma cells) [%],"viability at 200 µg/mL ([2]; Homo sapiens, LoVo) [%]","IC50 ([2]; Homo sapiens, LoVo)",IC50 [2] [µM],IC50 ([1]; mean ± SD of three replicates) [µM]
"O=c1c2cc(Cl)ccc2[nH]c(=S)n1-c1ccc([N+](=O)[O-])cc1 [Compound 3f, 6-Chloro-3-(4-nitro-phenyl)-2-thioxo-2,3-dihydro-1H-quinazolin-4-one]",1.59,21.5 ± 1.56,34.2 ± 1.77,9.59,5.32,29.16,22.7 ± 2.08,384 µM and 128 µg/mL,384,
"O=c1c2cc(Cl)ccc2[nH]c(=S)n1-c1cccc(C(F)(F)F)c1 [Compound 3a, 6-Chloro-2-thioxo-3-(3-trifluoromethyl-phenyl)-2,3-dihydro-1H-quinazolin-4-one]",1.84,53.5 ± 1.13,98.5 ± 1.34,14.6,6.56,22.64,23.5 ± 1.5,294 µM and 105 µg/mL,294,273
